Assay results taken from article PMC6271041, “Synthesis and Biological Evaluation of Novel 2-Arylalkylthio-5-iodine-6-substituted-benzyl-pyrimidine-4(3H)-ones as Potent HIV-1 Non-Nucleoside Reverse Transcriptase Inhibitors” (Molecules, 2014).

How the values were obtained:
[1] = target: T1, HIV-1 RT (Human immunodeficiency virus type 1 group M subtype B, UniProt P04585); experiment: Inhibitory activity against HIV-1 RT (biotin-dUTP incorporation, colorimetric); type: biochemical; conditions: mean of three separate experiments, variation less than 15%
T1 construct: The biotin-dUTP was incorporated by reverse transcriptase (Sigma, St. Louis, MO, USA); purchased Sigma
Procedure: Oligo(dT) (TaKaRa Co., Otsu, Japan) was immobilized via its 5'-terminal phosphate to Covalink-NH microtiter plates (NUNC Co., Roskilde, Denmark). The biotin-dUTP was incorporated by reverse transcriptase (Sigma, St. Louis, MO, USA). Briefly, a serial concentration of inhibitor was added to the mixture, which contained 50 mmol/L Tris-HCl (pH 8.3), 3 mmol/L MgCl2, 75 mmol/L KCl, 5 mmol/L DTT, 0.13 mg/mL BSA, 10 μg/mL poly (A), 0.75 μM biotin-11-Dutp, 1.5 μM dTTP and HIV-1 RT. After incubation at 37 °C for 1h, washing buffer, which contained 50 mmol/L Tris-HCl (pH 7.5), 0.15 mol/L NaCl, 0.05 mmol/L MgCl2 and 0.02% Tween20, was used to wash the plate. Then each well of the plate was added […] 1% BSA and incubated at room temperature for another 30 min. The plate was washed with the same buffer for 3 times. Before further incubation at 37 °C for 1 h, 50 μL of alkaline phosphatase streptavidin (SA-ALP) solution (100 ng/mL) was added to each well and washed again as above. Finally, 50 μL of p-nitrophenyl phosphate, disodium (PNPP, 1 mg/mL, pH 9.5) was added and incubated at 37 °C for 30 min. 0.5 mol/L NaOH was added to stop the reaction and a colorimetric streptavidin-alkaline phosphatase reporter system was used to detect and quantify the result.

SMILES | IC50 [1] | melting point
O=c1cc(Cc2ccccc2)nc(SCc2ccc([N+](=O)[O-])cc2)[nH]1 [7a, 2-(4-Nitrobenzylthio)-6-benzyluracil] | > 100 µM | 192 to 194 °C
Cc1cc(C)cc(Cc2cc(=O)[nH]c(SCc3ccc([N+](=O)[O-])cc3)n2)c1 [7b, 2-(4-Nitrobenzylthio)-6-(3,5-dimethylbenzyl)uracil] | 3.32 µM | 218 to 220 °C
O=c1cc(Cc2cc(F)cc(F)c2)nc(SCc2ccc([N+](=O)[O-])cc2)[nH]1 [7c, 2-(4-Nitrobenzylthio)-6-(3,5-difluorobenzyl)uracil] | > 100 µM | –
N#Cc1ccc(CSc2nc(Cc3ccccc3)cc(=O)[nH]2)cc1 [7d, 2-(4-Cyanobenzylthio)-6-benzyluracil] | > 100 µM | 190 to 193 °C
Cc1cc(C)cc(Cc2cc(=O)[nH]c(SCc3ccc(C#N)cc3)n2)c1 [7e, 2-(4-Cyanobenzylthio)-6-(3,5-dimethylbenzyl)uracil] | 29.6 µM | 193 to 196 °C
N#Cc1ccc(CSc2nc(Cc3cc(F)cc(F)c3)cc(=O)[nH]2)cc1 [7f, 2-(4-Cyanobenzylthio)-6-(3,5-difluorobenzyl)uracil] | 15.8 µM | 205 to 208 °C
CC(=O)c1ccc(CSc2nc(Cc3ccccc3)cc(=O)[nH]2)cc1 [7g, 2-(4-Acetylbenzylthio)-6-benzyluracil] | 55 µM | 204 to 205 °C
CC(=O)c1ccc(CSc2nc(Cc3cc(C)cc(C)c3)cc(=O)[nH]2)cc1 [7h, 2-(4-Acetylbenzylthio)-6-(3,5-dimethylbenzyl)uracil] | 17 µM | 195 to 197 °C
CC(=O)c1ccc(CSc2nc(Cc3cc(F)cc(F)c3)cc(=O)[nH]2)cc1 [7i, 2-(4-Acetylbenzylthio)-6-(3,5-difluorobenzyl)uracil] | 33.9 µM | 251 to 254 °C
COC(=O)c1ccc(CSc2nc(Cc3ccccc3)cc(=O)[nH]2)cc1 [7j, 2-(4-Methoxycarbonylbenzylthio)-6-benzyluracil] | > 100 µM | 214 to 217 °C
COC(=O)c1ccc(CSc2nc(Cc3cc(C)cc(C)c3)cc(=O)[nH]2)cc1 [7k, 2-(4-Methoxycarbonylbenzylthio)-6-(3,5-dimethylbenzyl)uracil] | 7.5 µM | 221 to 224 °C
COC(=O)c1ccc(CSc2nc(Cc3cc(F)cc(F)c3)cc(=O)[nH]2)cc1 [7l, 2-(4-Methoxycarbonylbenzylthio)-6-(3,5-difluorobenzyl)uracil] | > 100 µM | 279 to 280 °C
O=c1cc(Cc2ccccc2)nc(SCCc2ccc([N+](=O)[O-])cc2)[nH]1 [7m, 2-(4-Nitrophenethylthio)-6-benzyluracil] | 67.2 µM | 200 to 204 °C
O=c1cc(Cc2cc(F)cc(F)c2)nc(SCCc2ccc([N+](=O)[O-])cc2)[nH]1 [7o, 2-(4-Nitrophenethylthio)-6-(3,5-difluorobenzyl)uracil] | 18.1 µM | 220 to 222 °C
O=c1cc(Cc2ccccc2)nc(SCCOc2ccc([N+](=O)[O-])cc2)[nH]1 [7p, 2-(2-(4-Nitrophenoxy)ethylthio)-6-benzyluracil] | 4.58 µM | 212 to 213 °C
O=c1cc(Cc2cc(F)cc(F)c2)nc(SCCOc2ccc([N+](=O)[O-])cc2)[nH]1 [7r, 2-(2-(4-Nitrophenoxy)ethylthio)-6-(3,5-difluorobenzyl)uracil] | 1.31 µM | 210 to 212 °C
O=c1cc(Cc2ccccc2)nc(SCCCOc2ccccc2)[nH]1 [7s, 2-(Phenoxypropylthio)-6-benzyluracil] | 16.7 µM | 89 to 91 °C
Cc1cc(C)cc(Cc2cc(=O)[nH]c(SCCCOc3ccccc3)n2)c1 [7t, 2-(Phenoxypropylthio)-6-(3,5-dimethylbenzyl)uracil] | 2.64 µM | 100 to 102 °C
CC(C)c1c(Cc2ccccc2)n(COCc2ccccc2)c(=O)[nH]c1=O [TNK-651, reference compound] | 0.14 µM | –
